Experimental data as given in ChEMBL document CHEMBL4507268 (2021).

Assays:
Conditions in all cases: Compound concentration 1.0 uM
[1] = target: Mitogen-activated protein kinase kinase kinase 10 (Homo sapiens) (UniProt Q02779)
[2] = target: T1, Inhibitor of nuclear factor kappa-B kinase subunit beta (Homo sapiens) (UniProt O14920)
T1 sequence (whole entry): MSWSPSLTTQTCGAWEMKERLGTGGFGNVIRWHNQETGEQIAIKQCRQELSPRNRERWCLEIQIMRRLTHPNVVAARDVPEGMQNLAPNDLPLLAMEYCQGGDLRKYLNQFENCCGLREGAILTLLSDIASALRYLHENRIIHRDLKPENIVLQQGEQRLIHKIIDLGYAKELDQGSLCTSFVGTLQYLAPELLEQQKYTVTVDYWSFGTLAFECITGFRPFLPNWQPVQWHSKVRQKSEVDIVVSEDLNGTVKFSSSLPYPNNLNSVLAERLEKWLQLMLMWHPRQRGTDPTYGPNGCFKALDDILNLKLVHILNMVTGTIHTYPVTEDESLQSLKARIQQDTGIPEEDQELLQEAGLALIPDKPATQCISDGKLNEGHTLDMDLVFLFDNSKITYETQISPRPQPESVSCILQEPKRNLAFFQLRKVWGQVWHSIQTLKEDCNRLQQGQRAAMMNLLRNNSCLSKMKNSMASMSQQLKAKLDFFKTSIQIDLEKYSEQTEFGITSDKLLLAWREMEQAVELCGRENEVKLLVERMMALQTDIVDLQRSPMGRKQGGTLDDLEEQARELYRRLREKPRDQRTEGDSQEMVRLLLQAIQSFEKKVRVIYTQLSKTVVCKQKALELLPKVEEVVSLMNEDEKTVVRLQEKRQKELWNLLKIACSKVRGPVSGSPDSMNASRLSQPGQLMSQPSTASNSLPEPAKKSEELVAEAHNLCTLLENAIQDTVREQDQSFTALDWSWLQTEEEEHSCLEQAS

[3] = target: Calcium/calmodulin-dependent protein kinase type 1B (Homo sapiens) (UniProt Q6P2M8)
[4] = target: Eukaryotic elongation factor 2 kinase (Homo sapiens) (UniProt O00418)
[5] = target: SRSF protein kinase 2 (Homo sapiens) (UniProt P78362)
[6] = target: T2, Serine/threonine-protein kinase 3 (Homo sapiens) (UniProt Q13188)
T2 sequence (whole entry): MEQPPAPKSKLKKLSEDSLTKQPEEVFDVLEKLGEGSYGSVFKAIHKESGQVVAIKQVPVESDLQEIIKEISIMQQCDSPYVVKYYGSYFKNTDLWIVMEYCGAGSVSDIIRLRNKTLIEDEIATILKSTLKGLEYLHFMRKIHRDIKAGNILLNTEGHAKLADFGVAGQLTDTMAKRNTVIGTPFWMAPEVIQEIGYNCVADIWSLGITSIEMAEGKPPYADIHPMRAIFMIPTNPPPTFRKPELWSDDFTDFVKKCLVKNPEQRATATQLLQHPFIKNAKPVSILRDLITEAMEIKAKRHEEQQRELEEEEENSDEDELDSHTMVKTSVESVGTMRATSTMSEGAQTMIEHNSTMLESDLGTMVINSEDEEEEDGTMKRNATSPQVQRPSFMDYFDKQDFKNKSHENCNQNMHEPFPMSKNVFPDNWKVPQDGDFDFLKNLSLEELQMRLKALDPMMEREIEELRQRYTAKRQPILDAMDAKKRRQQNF

Homo sapiens = organism: Homo sapiens
[7] = target: T3, Bone morphogenetic protein receptor type-2 (Homo sapiens) (UniProt Q13873)
T3 sequence (whole entry): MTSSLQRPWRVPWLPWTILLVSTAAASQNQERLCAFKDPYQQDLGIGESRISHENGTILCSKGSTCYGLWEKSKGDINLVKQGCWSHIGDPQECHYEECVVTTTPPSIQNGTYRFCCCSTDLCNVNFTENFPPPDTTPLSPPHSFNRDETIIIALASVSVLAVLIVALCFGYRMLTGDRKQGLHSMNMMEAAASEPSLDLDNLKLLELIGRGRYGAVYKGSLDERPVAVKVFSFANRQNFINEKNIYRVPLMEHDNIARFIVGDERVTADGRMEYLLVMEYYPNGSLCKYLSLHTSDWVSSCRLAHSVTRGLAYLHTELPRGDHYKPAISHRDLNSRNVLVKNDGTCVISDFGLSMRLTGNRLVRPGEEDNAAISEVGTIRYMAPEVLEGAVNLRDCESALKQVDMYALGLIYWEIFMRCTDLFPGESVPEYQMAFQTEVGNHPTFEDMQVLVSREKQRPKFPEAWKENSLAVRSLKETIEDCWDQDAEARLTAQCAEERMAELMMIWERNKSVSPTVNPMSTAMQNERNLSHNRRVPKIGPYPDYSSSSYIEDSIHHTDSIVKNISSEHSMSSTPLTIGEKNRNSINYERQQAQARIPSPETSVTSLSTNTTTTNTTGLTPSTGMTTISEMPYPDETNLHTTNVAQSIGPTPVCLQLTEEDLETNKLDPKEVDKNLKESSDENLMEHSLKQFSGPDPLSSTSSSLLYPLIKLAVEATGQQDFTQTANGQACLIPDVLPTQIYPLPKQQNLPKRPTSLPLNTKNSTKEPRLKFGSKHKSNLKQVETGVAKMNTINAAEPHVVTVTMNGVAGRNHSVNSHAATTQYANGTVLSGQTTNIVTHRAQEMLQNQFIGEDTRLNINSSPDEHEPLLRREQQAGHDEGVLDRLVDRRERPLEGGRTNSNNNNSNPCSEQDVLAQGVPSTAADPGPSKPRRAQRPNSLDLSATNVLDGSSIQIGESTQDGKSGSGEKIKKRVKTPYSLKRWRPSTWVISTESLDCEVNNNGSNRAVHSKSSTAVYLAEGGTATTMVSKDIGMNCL

[8] = target: Non-receptor tyrosine-protein kinase TYK2 (Homo sapiens) (UniProt P29597)

Measured: % residual kinase activity

Calcium/calmodulin-dependent protein kinase type 1B (Homo sapiens), sequence (Q6P2M8 whole entry): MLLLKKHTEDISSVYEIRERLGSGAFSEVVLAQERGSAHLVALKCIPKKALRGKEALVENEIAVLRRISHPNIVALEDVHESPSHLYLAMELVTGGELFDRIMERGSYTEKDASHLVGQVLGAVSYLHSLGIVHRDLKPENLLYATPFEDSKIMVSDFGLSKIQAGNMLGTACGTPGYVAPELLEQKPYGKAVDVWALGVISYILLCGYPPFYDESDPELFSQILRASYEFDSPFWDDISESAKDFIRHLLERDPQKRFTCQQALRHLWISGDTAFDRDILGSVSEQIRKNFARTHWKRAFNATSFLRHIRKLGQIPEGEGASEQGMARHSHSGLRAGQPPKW
Mitogen-activated protein kinase kinase kinase 10 (Homo sapiens), sequence (Q02779 whole entry, looked up): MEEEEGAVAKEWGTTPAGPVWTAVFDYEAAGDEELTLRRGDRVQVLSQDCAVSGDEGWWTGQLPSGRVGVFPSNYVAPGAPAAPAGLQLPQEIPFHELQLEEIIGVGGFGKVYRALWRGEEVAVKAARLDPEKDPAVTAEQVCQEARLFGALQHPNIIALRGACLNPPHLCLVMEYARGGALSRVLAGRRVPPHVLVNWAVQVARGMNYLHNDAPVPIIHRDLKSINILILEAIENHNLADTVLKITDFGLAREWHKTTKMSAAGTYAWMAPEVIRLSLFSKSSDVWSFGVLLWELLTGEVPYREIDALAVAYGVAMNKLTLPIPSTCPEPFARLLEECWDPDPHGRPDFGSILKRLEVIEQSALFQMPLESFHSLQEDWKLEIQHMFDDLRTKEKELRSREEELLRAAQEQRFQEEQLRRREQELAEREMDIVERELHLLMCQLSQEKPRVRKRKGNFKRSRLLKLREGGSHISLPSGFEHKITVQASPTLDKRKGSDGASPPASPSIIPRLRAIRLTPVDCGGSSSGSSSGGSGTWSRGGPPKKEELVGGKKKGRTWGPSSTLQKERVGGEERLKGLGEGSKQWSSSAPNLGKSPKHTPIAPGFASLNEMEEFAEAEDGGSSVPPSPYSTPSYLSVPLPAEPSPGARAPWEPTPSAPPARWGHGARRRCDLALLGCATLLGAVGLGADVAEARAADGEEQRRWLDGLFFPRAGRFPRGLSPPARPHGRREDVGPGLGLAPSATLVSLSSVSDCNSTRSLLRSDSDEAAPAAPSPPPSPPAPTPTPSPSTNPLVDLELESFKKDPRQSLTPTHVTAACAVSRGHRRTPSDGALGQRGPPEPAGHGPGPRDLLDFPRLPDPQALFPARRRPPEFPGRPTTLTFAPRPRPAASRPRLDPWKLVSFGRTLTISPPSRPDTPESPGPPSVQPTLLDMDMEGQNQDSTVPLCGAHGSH
Eukaryotic elongation factor 2 kinase (Homo sapiens), sequence (O00418 whole entry): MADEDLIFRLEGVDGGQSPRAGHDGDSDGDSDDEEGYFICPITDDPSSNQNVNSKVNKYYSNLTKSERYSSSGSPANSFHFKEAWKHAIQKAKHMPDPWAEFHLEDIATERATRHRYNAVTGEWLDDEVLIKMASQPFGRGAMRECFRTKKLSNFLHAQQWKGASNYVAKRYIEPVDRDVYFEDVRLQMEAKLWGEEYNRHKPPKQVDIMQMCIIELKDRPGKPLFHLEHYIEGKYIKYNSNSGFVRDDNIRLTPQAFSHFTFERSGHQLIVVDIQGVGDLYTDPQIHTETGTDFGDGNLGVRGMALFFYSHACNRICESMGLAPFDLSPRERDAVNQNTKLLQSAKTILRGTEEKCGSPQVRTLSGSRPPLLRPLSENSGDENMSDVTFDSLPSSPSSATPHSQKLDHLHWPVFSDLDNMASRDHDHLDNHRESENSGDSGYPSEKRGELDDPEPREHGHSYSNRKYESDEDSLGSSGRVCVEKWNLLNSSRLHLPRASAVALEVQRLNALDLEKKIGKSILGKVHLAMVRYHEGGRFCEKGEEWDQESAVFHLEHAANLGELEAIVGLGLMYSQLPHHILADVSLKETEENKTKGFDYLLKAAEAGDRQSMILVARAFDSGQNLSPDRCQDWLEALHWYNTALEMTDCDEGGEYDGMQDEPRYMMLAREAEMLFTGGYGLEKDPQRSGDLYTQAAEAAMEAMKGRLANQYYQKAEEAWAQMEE
Non-receptor tyrosine-protein kinase TYK2 (Homo sapiens), sequence (P29597 whole entry): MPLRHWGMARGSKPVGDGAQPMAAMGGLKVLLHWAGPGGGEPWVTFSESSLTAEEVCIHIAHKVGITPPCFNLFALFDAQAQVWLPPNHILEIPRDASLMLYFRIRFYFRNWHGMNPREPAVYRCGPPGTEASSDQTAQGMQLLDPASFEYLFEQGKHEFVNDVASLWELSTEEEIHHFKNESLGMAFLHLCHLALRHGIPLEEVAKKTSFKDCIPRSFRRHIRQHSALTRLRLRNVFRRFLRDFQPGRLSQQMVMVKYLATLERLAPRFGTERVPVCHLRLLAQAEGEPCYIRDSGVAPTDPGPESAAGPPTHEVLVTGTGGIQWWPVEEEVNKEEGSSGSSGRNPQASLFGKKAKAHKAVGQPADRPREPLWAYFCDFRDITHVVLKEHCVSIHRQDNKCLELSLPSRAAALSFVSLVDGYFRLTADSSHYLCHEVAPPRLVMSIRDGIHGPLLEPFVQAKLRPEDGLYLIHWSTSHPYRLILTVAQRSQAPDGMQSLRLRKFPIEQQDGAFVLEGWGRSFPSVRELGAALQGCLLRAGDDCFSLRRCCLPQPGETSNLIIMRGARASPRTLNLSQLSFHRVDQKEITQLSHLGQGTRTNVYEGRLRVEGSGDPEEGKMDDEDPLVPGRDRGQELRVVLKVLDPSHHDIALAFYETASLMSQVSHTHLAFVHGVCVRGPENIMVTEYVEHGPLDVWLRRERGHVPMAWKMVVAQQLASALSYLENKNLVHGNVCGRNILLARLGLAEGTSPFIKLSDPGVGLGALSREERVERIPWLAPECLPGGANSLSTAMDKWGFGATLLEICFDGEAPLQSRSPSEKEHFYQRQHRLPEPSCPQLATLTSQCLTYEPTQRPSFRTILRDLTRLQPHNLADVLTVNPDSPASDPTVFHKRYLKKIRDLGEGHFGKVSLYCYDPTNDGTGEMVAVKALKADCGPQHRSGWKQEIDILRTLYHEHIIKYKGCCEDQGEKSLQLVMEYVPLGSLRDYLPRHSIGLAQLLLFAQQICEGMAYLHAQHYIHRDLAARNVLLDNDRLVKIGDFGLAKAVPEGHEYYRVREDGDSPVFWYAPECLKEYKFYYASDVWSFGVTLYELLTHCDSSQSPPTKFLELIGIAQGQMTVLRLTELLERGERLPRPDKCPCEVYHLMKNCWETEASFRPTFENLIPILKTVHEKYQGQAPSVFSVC
SRSF protein kinase 2 (Homo sapiens), sequence (P78362 whole entry, looked up): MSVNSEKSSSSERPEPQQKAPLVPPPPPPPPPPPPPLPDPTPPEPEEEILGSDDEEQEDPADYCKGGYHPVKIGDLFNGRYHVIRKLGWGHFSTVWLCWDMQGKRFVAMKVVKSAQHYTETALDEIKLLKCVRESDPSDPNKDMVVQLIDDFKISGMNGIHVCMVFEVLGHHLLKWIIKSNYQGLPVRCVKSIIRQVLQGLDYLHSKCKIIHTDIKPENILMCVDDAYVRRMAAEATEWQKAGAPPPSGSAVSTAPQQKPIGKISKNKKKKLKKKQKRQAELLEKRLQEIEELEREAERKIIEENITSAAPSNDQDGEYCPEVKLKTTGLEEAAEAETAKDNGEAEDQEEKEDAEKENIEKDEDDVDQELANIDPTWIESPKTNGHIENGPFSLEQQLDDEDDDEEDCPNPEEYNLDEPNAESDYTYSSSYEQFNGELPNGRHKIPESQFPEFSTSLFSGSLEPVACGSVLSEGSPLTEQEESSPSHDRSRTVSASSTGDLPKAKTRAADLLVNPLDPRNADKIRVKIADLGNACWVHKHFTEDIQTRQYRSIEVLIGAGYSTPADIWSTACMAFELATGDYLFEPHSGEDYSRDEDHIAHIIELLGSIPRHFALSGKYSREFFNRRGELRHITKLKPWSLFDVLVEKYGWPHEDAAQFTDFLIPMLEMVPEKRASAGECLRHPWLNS

CN1CCN(c2cnc3c(C4CCN(C(=O)c5ccc(OC(F)(F)F)cc5N)CC4)ncnc3c2)CC1 [BAY-885]
inactive: [1] 107% | [2] 106% | [3] 104% | [4] 113% | [5] 99% | [6] 128% | Homo sapiens 112% | [7] 100% | [8] 110%
